Measured values taken from patent US20220273590A1, “COMPOUNDS FOR PREVENTION AND TREATMENT OF POST-OPERATIVE COGNITIVE DYSFUNCTION” (ABREXA PHARMACEUTICALS, INC., priority 2019, published 2022).

Key:
animal model of POCD [1] = experiment: Novel Object and Novel Location Recognition (NOR/NLR) after abdominal surgery; format: in vivo, Wistar rats
Description: Male Wistar rats (˜350 g) were randomly divided into 4 experimental groups; non-surgery; control abdominal surgery; surgery+acute J147 treatment (7 mg/rat by gavage, 4-5 hours before surgery); surgery+chronic J147 (500 mg/kg food, 1 week before surgery until the end of the study). Timed blood samples were collected. Days 9-11 post surgery, general behavior (Open field: OF) and cognitive performance (Novel Object/Novel Location Recognition: NOR/NLR; Morris Water Maze: MWM) were tested. Day 14, rats were sacrificed and blood and brain tissue were collected for further analyses. (Neuro)inflammation was examined by circulating cytokine levels and microglia activation in the brain. Abdominal surgery was performed as described previously by Hovens et al., 2014. Rats were anaesthetized using sevoflurane (±2.5% in air/O2=2/1) and received 0.01 mg/kg buprenorphine s.c. A heating blanket was used to preserve body temperature. An incision was made along the linea alba and the intestines were exteriorised. The upper mesenteric artery was isolated from surrounding tissue and clamped for a period of 30 minutes during which the intestines and surgical wound were covered with gauze soaked in saline, to prevent dehydration. During this time the animals were equipped with an indwelling jugular vein catheter to mimic insertion of a venous line in patients and allow timed blood sampling. For that, an incision was made at the subclavical region, the jugular vein was freed from surrounding tissue and a catheter was introduced and advanced into the vena cava, just above the right atrium. The other end of the catheter was guided subcutaneously to the head, and fixated on the skull with dental cement. The catheter was filled with PVP dissolved in heparin solution and closed with a plastic plug. After subsequent removal of the mesenteric artery clamp, the intestines were gently placed back and the abdominal wall and skin were closed separately by sutures. Clamping and reperfusion were visually verified by absence or presence of pulsation in the mesenteric artery distal to the clamp site. From induction to recovery, the procedure takes approximately 60 minutes. Post-operatively, the animals were allowed to recover and subsequently were housed individually. Rats were weighed daily at the last hour of the dark period. Maximal weight loss within the first 5 days post-surgery was taken as measure of experienced severity of surgery. Behavioral tests were performed in the dark (active) period of the rats. The lights were turned on at 9:00 p.m. and off at 9:00 a.m. […] General exploratory behavior and anxiety was tested in the Open field (OF) test; spatial learning, spatial memory and cognitive flexibility in the Morris Water Maze (MWM); spatial working memory in the novel location recognition test (NL); the novel object recognition test (NO) for working memory on object recognition. The Novel Object and Novel Location Recognition were tested in random order in one procedure to assess spatial short term memory and object memory. For this test, an open square box (50×50×40 cm) with 2 transparent and two grey walls was used. Objects used in the test were selected from a pilot study, investigating the preferences of rats for different objects. Rats were habituated to the box for 3 minutes, the day before the test. The test consisted of four phases, each phase took 3 minutes. Between each phase there was a break of 45 seconds in which the rat remained in the test box. The first phase was performed in an empty box, in the second phase two identical objects were placed in both corners at the nearest end of the box. In this phase, the rat was allowed to explore both objects. After this exploration phase either a novel object test or novel location test was performed. Before the start of each phase both objects were removed from the box and cleaned with 70% ethanol. […]

animal model of POCD [2] = experiment: Morris Water Maze (MWM) after abdominal surgery; format: in vivo, Wistar rats; conditions: chronically treated rats
Description: Male Wistar rats (˜350 g) were randomly divided into 4 experimental groups; non-surgery; control abdominal surgery; surgery+acute J147 treatment (7 mg/rat by gavage, 4-5 hours before surgery); surgery+chronic J147 (500 mg/kg food, 1 week before surgery until the end of the study). Timed blood samples were collected. Days 9-11 post surgery, general behavior (Open field: OF) and cognitive performance (Novel Object/Novel Location Recognition: NOR/NLR; Morris Water Maze: MWM) were tested. Day 14, rats were sacrificed and blood and brain tissue were collected for further analyses. (Neuro)inflammation was examined by circulating cytokine levels and microglia activation in the brain.
Abdominal surgery was performed as described previously by Hovens et al., 2014. Rats were anaesthetized using sevoflurane (±2.5% in air/O2=2/1) and received 0.01 mg/kg buprenorphine s.c. A heating blanket was used to preserve body temperature. An incision was made along the linea alba and the intestines were exteriorised. […]
The second day started with a probe trial to assess early spatial memory. […] We measured how often the rat crossed the place of the platform and how much time he spent in the target quadrant. […]

SMILES: COc1cccc(/C=N/N(C(=O)C(F)(F)F)c2ccc(C)cc2C)c1 [J147]
- NOR score (novel object preference) (animal model of POCD [1]; Surgery + acute J147, n = 12, random = 50%): 60 ± 5%
- Baseline exploration (% time) (animal model of POCD [1]; Surgery + acute J147, n = 15, mean ± SEM): 23.6 ± 2.3 % time
- NLR score (novel location preference) (animal model of POCD [1]; Surgery + acute J147, n = 15, random = 50%, significantly different from random): 61 ± 4%
- NLR score (novel location preference) (animal model of POCD [1]; Surgery + chronic J147, n = 11, random = 50%, significantly different from random): 70 ± 6%
- NOR score (novel object preference) (animal model of POCD [1]; Surgery + chronic J147, n = 12, random = 50%, significantly different from random): 58 ± 4%
- Baseline exploration (% time) (animal model of POCD [1]; Surgery + chronic J147, n = 15, mean ± SEM): 16.8 ± 2.5 % time
- difference between the groups in preference for the novel or relocated object (animal model of POCD [1]; acute and chronic J147 versus control groups): No significant differences
- NLR test performance versus random (animal model of POCD [1]; both treated groups (acute and chronic J147)): performed above random
- NLR performance compared with other groups (animal model of POCD [1]; chronically treated rats): performed best in NLR
- NOR, effect of treatment (animal model of POCD [1]; chronically treated rats): not affected
- spatial and reversal learning (MWM), effect of treatment (animal model of POCD [2]): not affected
- spatial memory in the MWM (animal model of POCD [2]): significantly improved spatial memory
